Measured values taken from patent EP4755891A1, “ARF1 INHIBITOR AND USE THEREOF” (AOBIO PHARMACEUTICAL CO., LTD., priority 2023, dated 2025).

Legend:
[1] = tested on: Drosophila orthotopic tumors; experiment: Inhibition of orthotopic tumor growth in Drosophila; type: in vivo; settings: 5 µM in food, 4 days; Ras^V12-PMML clones; FIG. 7
Method: In this example, the inhibitory effects of Compounds 3 and 9 synthesized in the above preparation examples on the growth of Drosophila orthotopic tumors were tested. As previously described, renal stem cell tumor clusters were induced by expressing Ras in Drosophila renal stem cell (Ras^V12-PMML) clones (Singh et al., 2016). The Drosophila carrying Ras^V12-PMML clones were cultured with normal food at room temperature for 4 days to allow tumor growth. They were then switched to food containing the indicated drugs for an additional 4 days, followed by feeding the Drosophila carrying Ras^V12-PMML with normal food containing DMSO or 5 µM Compound 3 or Compound 9. In the indicated groups, the number of esg>GFP + tumor cells per 5×10^3 µm^2 area was quantified to characterize tumor size.

CT26 colon cancer = experiment: Inhibition of CT26 colon cancer in BALB/c mice (Example 47, 5 mg/kg); type: in vivo; settings: gavaged daily, two consecutive weeks
Method: In this example, the inhibitory effects of Compounds 9, 11-3, 25, 26, 27, and DU102 on colon cancer growth were tested.
Murine CT26 cells were inoculated into the left abdomen of 6-week-old male mice at a dose of 5×10^5 cells per mouse. Approximately 7 days later, the mice were randomly divided into two groups: the control group or the compound treatment group. They were gavaged daily with either the vehicle control (ddH2O or 5% DMSO in corn oil) or 5 mg/kg of Compounds 9, 11-3, 25, 26, or 27 (dissolved in the corresponding vehicle) for two consecutive weeks. Tumor diameters were measured every 2-3 days using a digital caliper (ULINE, Cat^# H-7352), and the tumor volume was calculated using the formula ½ × longitudinal diameter (length) × maximum transverse diameter (width). When the maximum tumor volume reached 2000 mm^3, the mice were euthanized.

[2] = Plasma stability, dog plasma; type: in vitro ADME; settings: 2.0 µM, 37°C
Method: (§1) At 37°C, 2.0 µM of the compound was co-incubated with plasma samples from five species (mouse, rat, dog, cynomolgus monkey, human) for 120 minutes. The concentration of the compound in the samples was detected by the liquid chromatography-tandem mass spectrometry (LC-MS/MS) method, and the half-life (T1/2) was calculated.

[3] = Plasma stability, human plasma; type: in vitro ADME; settings: 2.0 µM, 37°C
Method: as §1

[4] = Solubility in DMSO and H2O

Cc1csc2ncnc(Nc3ccc4c(c3)ncn4C)c12 [Compound 9, 5-Methyl-N-(1-methyl-1H-benzo[d]imidazol-5-yl)thieno[2,3-d]pyrimidin-4-amine]
orthotopic tumor growth in Drosophila [1]: effectively inhibit orthotopic tumor growth | size of murine colon cancer (CT26 colon cancer; FIG. 9A): size of murine colon cancer inhibited | weight of murine colon cancer (CT26 colon cancer; FIG. 9B): weight of murine colon cancer reduced significantly | inhibition of CT26 colon cancer (CT26 colon cancer; FIG. 9 and FIG. 10): effectively inhibit CT26 colon cancer | remaining amount in plasma ([2]; time point 0 min): 100.0% | remaining amount in plasma ([2]; time point 10 min): 99.0% | remaining amount in plasma ([2]; time point 30 min): 94.0% | remaining amount in plasma ([2]; time point 60 min): 98.8% | remaining amount in plasma ([2]; time point 120 min): 86.0% | remaining amount in plasma ([3]; time point 0 min): 100.0% | remaining amount in plasma ([3]; time point 10 min): 99.8% | remaining amount in plasma ([3]; time point 30 min): 108.9% | remaining amount in plasma ([3]; time point 60 min): 113.3% | remaining amount in plasma ([3]; time point 120 min): 104.6% | solubility in DMSO ([4]; DMSO, FIG. 2A): soluble | solubility in H2O ([4]; H2O, FIG. 2B): high solubility
